Laboratory results as given in patent US4201790A, “Benzophenone derivatives” (May & Baker Limited, priority 1975, dated 1980).

Assays:
[1] = test system: β-adrenoceptors in the heart; experiment: Test I. β-Adrenoceptor blocking activity in the anaesthetised cat (intravenous), cardiac (isoprenaline tachycardia); format: in vivo; settings: hydrochloride salts, isoprenaline 210 seconds after test compound
Description: (§1) Test I. β-Adrenoceptor blocking activity in the anaesthetised cat (intravenous administration).
(§2) Cats were anaesthetised with a mixture of pentobarbitone (6-12 mg./kg.) and chloralose suspension (80 mg./kg.) administered intraperitoneally. The heart rate was recorded from the E.C.G. or from the pulse, and blood pressure was recorded from the carotid artery. Whole (0.3-0.6 μg.) and half (0.15-0.3 μg.) doses of isoprenaline were then administered, intravenously via the jugular vein, alternately at 7 minute intervals over a period of several hours. 210 seconds after a half dose of isoprenaline, one of the compounds under test was administered intravenously. 210 seconds later the whole dose of isoprenaline was administered. The doses of the test compound required to reduce (1) the tachycardia and (2) the fall in diastolic blood pressure produced by the whole dose of isoprenaline to that produced by the half dose were determined. The former response gives a measure of the ability of the test compound to block β-adrenoceptors in the heart while the latter response gives a measure of the ability of the test compound to block the β-adrenoceptors mediating vasodilation.
(§3) Those hydrochloride salts of compounds A, G, H and J were dissolved in water and administered in aqueous solution. Compounds B, C, D, E, F and I were each dissolved in dilute aqueous hydrochloric acid solution (0.1 N) and the solution thus obtained was neutralised by treatment with aqueous sodium hydroxide solution (0.1 N), to give a neutral solution of the hydrochloride salt of the test compound suitable for administration.

[2] = test system: β-adrenoceptors mediating vasodilation; experiment: Test I. β-Adrenoceptor blocking activity in the anaesthetised cat (intravenous), vascular (isoprenaline fall in diastolic blood pressure); format: in vivo; settings: for i.v. Dose Vascular (dose required to reduce fall in diastolic blood pressure produced by whole dose of isoprenaline to that produced by half dose): hydrochloride salts, isoprenaline 210 seconds after test compound; for Ratio cardiac dose / vascular dose: i.v.
Description: as §1, §2, §3

[3] = Acute toxicity, mouse, intravenous; settings: in vivo, read-out: i.v. LD80
[4] = Acute toxicity, mouse, oral; settings: in vivo
[5] = test system: β-adrenoceptors in the heart; experiment: Test II. β-Adrenoceptor blocking activity in the anaesthetised rhesus monkey (intravenous), cardiac; format: in vivo; settings: i.v., hydrochloride salt
Description: as §2
(§4) Test II. β-Adrenoceptor blocking activity in the anaesthetised rhesus monkey and in the anaesthetised dog (intravenous administration)
(§5) Test compound A (hydrochloride salt) was tested intravenously in anaesthetised rhesus monkeys and dogs by proceeding in a similar fashion to that described above in Test I.

[6] = test system: β-adrenoceptors mediating vasodilation; experiment: Test II. β-Adrenoceptor blocking activity in the anaesthetised rhesus monkey (intravenous), vascular; format: in vivo; settings: i.v., hydrochloride salt
Description: as §2, §4, §5

[7] = test system: β-adrenoceptors in the heart; experiment: Test II. β-Adrenoceptor blocking activity in the anaesthetised dog (intravenous), cardiac; format: in vivo; settings: i.v., hydrochloride salt
Description: as §2, §4, §5

[8] = test system: β-adrenoceptors mediating vasodilation; experiment: Test II. β-Adrenoceptor blocking activity in the anaesthetised dog (intravenous), vascular; format: in vivo; settings: i.v., hydrochloride salt
Description: as §2, §4, §5

[9] = test system: β-adrenoceptors in the heart; experiment: Test III. β-Adrenoceptor blocking activity in the anaesthetised dog (oral), cardiac; format: in vivo; settings: hydrochloride salt
Description: as §2
(§6) Test III. β-Adrenoceptor blocking activity in the anaesthetised dog (oral administration)
(§7) Test compound A(hydrochloride salt) was tested orally in anaesthetised dogs by proceeding in a similar fashion to that described above in Test I and Test II. The results are expressed below in Table III.

[10] = test system: β-adrenoceptors mediating vasodilation; experiment: Test III. β-Adrenoceptor blocking activity in the anaesthetised dog (oral), vascular; format: in vivo; settings: hydrochloride salt
Description: as §2, §6, §7

[11] = Toxicity, rat, oral, two weeks; format: in vivo; settings: oral daily doses of 12, 24, 48 or 96 mg./kg. during two weeks
[12] = Toxicity, dog, oral, two weeks; format: in vivo, dog (beagle); settings: beagles, oral daily doses of 10, 50 or 100 mg./kg. during two weeks
Description: Two groups, each of two males and two females, each received a daily dose of 10 or 50 mg./kg. animal body weight and one group, of one male and one female, received a daily dose of 100 mg./kg. animal body weight.

Structure (SMILES) | i.v. Dose Cardiac (dose required to reduce tachycardia produced by whole dose of isoprenaline to that produced by half dose) [1] | i.v. Dose Vascular (dose required to reduce fall in diastolic blood pressure produced by whole dose of isoprenaline to that produced by half dose) [2] | Ratio cardiac dose / vascular dose [2] | LD50 [3] [mg/kg] | other results
Cc1cc(C)c(C(=O)c2ccccc2C)c(OCC(O)CNC(C)C)c1 (racemic) [D, DL-1-(3,5-dimethyl-2-o-toluoylphenoxy)-2-hydroxy-3-isopropylaminopropane] | 0.8 mg./kg. animal body weight | 0.16 mg./kg. animal body weight | 5.0 | 34 | 
Cc1ccc(C(=O)c2c(C)cc(C)cc2OCC(O)CNC(C)C)c(C)c1 (racemic) [F, DL-1-[2-(2,4-dimethylbenzoyl)-3,5-dimethylphenoxy]-2-hydroxy-3-isopropylaminopropane] | 0.59 mg./kg. animal body weight | 0.24 mg./kg. animal body weight | 2.5 | 24 | 
Cc1cc(C)c(C(=O)c2c(C)cccc2C)c(OCC(O)CNC(C)C)c1 (racemic) [E, DL-1-[2-(2,6-dimethylbenzoyl)-3,5-dimethylphenoxy]-2-hydroxy-3-isopropylaminopropane] | 3.7 mg./kg. animal body weight | 1.8 mg./kg. animal body weight | 2.1 | 42 | 
Cc1ccc(C)c(C(=O)c2ccccc2)c1OCC(O)CNC(C)C (racemic) [G, DL-1-(2-benzoyl-3,6-dimethylphenoxy)-2-hydroxy-3-isopropylaminopropane] | 7.1 mg./kg. animal body weight | 4.2 mg./kg. animal body weight | 1.7 |  | 
Cc1ccc(C(=O)c2c(C)cc(C)cc2OCC(O)CNC(C)C)cc1 (racemic) [B, DL-1-(3,5-dimethyl-2-p-toluoylphenoxy)-2-hydroxy-3-isopropylaminopropane] | 2.9 mg./kg. animal body weight | 0.031 mg./kg. animal body weight | 93.5 | 25 to 31 | LD50 [4]: ~1000 mg/kg
Cc1cc(C)c(C(=O)c2ccccc2)c(OCC(O)CNC(C)C)c1 (racemic) [Compound A, DL-1-(2-benzoyl-3,5-dimethylphenoxy)-2-hydroxy-3-isopropylaminopropane] | 1.1 mg./kg. animal body weight | 0.023 mg./kg. animal body weight | 48 | 40 | Dose cardiac ([5]; 210 second interval after dose): 0.1 mg./kg. animal body weight; Dose cardiac ([5]; one hour interval after dose): > 1 mg./kg. animal body weight; Dose vascular ([6]; 210 second interval after dose): 0.0087 mg./kg. animal body weight; Dose vascular ([6]; one hour interval after dose): 0.0076 mg./kg. animal body weight; Dose cardiac ([7]; 210 second interval after dose): 0.1 mg./kg. animal body weight; Dose cardiac ([7]; one hour interval after dose): 0.13 mg./kg. animal body weight; Dose vascular ([8]; 210 second interval after dose): < 0.02 mg./kg. animal body weight; Dose vascular ([8]; one hour interval after dose): < 0.02 mg./kg. animal body weight; Oral dose cardiac ([9]; 1 hour after dose): 4 mg./kg. animal body weight; Oral dose cardiac ([9]; 2 hours after dose): 3.2 mg./kg. animal body weight; Oral dose cardiac ([9]; 3 hours after dose): 6 mg./kg. animal body weight; Oral dose vascular ([10]; 1 hour after dose): < 0.1 mg./kg. animal body weight; Oral dose vascular ([10]; 2 hours after dose): 0.08 mg./kg. animal body weight; Oral dose vascular ([10]; 3 hours after dose): 0.1 mg./kg. animal body weight; tolerability [11]: well tolerated; tolerability [12]: well tolerated
Cc1cc(C)c(C(=O)c2ccccc2)c(OCC(O)CNC(C)C)c1C (racemic) [Compound C, DL-1-(2-benzoyl-3,5,6-trimethylphenoxy)-2-hydroxy-3-isopropylaminopropane] | 4.4 mg./kg. animal body weight | 2.3 mg./kg. animal body weight | 1.9 | 23 | 
Cc1cc(C)c(C(=O)c2ccc(Cl)cc2)c(OCC(O)CNC(C)C)c1 (racemic) [H, DL-1-(2-p-chlorobenzoyl-3,5-dimethylphenoxy)-2-hydroxy-3-isopropylaminopropane] | 0.72 mg./kg. animal body weight | 0.037 mg./kg. animal body weight | 19 | 32 to 40 | 
Cc1ccc(C(=O)c2c(C)cc(C)cc2OCC(O)CNC(C)(C)C)cc1 (racemic) [Compound I, DL-1-t-butylamino-3-(3,5-dimethyl-2-p-toluoylphenoxy)-2-hydroxypropane] | 0.46 mg./kg. animal body weight | 0.027 mg./kg. animal body weight | 17 | 24 | 
Cc1ccc(C(=O)c2c(C)cc(C)cc2OCC(O)CNCCc2ccccc2)cc1 (racemic) [Compound J, DL-1-(3,5-dimethyl-2-p-toluoylphenoxy)-2-hydroxy-3-(2-phenylethylamino)propane] | ~2.0 mg./kg. animal body weight | 0.068 mg./kg. animal body weight | 29 |  | 
